The term EC50 denotes the concentration giving half of the maximal effect.

The target in the assay is T1, IRE1α (Homo sapiens, UniProt O75460).
T1 construct: purchased SignalChem
T1 sequence (O75460 19-977): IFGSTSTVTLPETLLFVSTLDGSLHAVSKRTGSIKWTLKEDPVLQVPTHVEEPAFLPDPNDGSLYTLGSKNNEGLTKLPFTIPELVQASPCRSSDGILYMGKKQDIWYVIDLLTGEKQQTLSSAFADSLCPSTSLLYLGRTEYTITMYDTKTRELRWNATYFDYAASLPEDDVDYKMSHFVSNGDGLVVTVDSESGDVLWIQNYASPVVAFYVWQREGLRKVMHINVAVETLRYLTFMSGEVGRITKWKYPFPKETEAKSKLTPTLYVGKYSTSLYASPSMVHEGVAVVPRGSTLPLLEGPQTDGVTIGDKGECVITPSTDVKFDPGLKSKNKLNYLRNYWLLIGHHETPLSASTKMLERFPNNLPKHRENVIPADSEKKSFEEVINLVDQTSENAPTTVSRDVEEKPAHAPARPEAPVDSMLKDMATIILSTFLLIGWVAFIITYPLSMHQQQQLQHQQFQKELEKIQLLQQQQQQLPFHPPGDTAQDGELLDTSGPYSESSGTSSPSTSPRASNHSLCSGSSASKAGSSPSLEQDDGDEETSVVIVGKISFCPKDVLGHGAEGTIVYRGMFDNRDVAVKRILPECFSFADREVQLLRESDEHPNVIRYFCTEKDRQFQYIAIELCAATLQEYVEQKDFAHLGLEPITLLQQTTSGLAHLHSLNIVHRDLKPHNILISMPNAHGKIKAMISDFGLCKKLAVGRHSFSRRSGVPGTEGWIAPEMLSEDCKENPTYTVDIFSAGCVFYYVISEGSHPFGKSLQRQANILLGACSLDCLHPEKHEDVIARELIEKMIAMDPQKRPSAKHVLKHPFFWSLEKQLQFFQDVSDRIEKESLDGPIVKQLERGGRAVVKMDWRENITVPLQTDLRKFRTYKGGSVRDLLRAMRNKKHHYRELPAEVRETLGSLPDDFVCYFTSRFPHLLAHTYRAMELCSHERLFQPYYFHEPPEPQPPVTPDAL
Briefly: In vitro FRET assay (XBP1 RNA probe cleavage by IRE1α). To be noted: biochemical FRET assay, 2 nM IRE1α. The method, then:
In vitro FRET assay was performed to evaluate the ability of select compounds to inhibit IRE1, the results of which are summarized in the following table.
To perform the in vitro FRET assay, 1× complete assay buffer (CAB; […], 50 mM sodium citrate pH 7.15, 1 mM magnesium acetate, 0.02% Tween 20) was used to dilute SignalChem IRE1α in protein to a final concentration of 2 nM. Selected compounds were serially diluted with DMSO in a non-binding black 384-well plate for a total of 15 μl in each well. 2 μl of the serially diluted compound or DMSO control were then added to new wells containing 98 μl of 1×CAB, for a total volume of 100 μl, 10 μl of which were then transferred to wells of a new plate. 5 μl of the diluted IRE1α was then added to each well. 5 μl of a […] XBP1 RNA probe was then added to each well. Fluorescence was then read over 30 minutes in kinetic mode (485/515 nm). Two RNA probes were used, XBP1 wildtype (CAUGUCCGCAGCACAUG; SEQ ID NO: 1) which is able to be spliced by active IRE1α or XBP1 mutant (CAUGUCCCCAGCACAUG; SEQ ID NO: 2) which is unable to be spliced. Each probe contained a 5′ 6-FAM modification and a 3′ IOWA Black FQ modification. […]
Turning to `CN1CCN(Cc2ccc(NC(=O)Nc3cc(-c4ccc5oncc5c4)n(C)n3)cc2C(F)(F)F)CC1` [Compound 3, 1-(5-(benzo[d]isoxazol-5-yl)-1-methyl-1H-pyrazol-3-yl)-3-(4-((4-methylpiperazin-1-yl)methyl)-3-(trifluoromethyl)phenyl)urea], the EC50 is above 100 µM. The value for `CN1CCN(Cc2ccc(NC(=O)Nc3cc(-c4ccnc5c4ccn5C)n(C)n3)cc2C(F)(F)F)CC1` [Compound 12, 1-(1-methyl-5-(1-methyl-1H-pyrrolo[2,3-b]pyridin-4-yl)-1H-pyrazol-3-yl)-3-(4-((4-methylpiperazin-1-yl)methyl)-3-(trifluoromethyl)phenyl)urea] was 5 to 50 µM.

As for `CN1CCN(Cc2ccc(NC(=O)Nc3cc(-c4ccc5ccncc5c4)n(C)n3)cc2C(F)(F)F)CC1` [Compound 24, 1-(5-(isoquinolin-7-yl)-1-methyl-1H-pyrazol-3-yl)-3-(4-((4-methylpiperazin-1-yl)methyl)-3-(trifluoromethyl)phenyl)urea], the EC50 is at most 5 µM. The molecule `CN1CCN(Cc2ccc(NC(=O)Nc3cc(-c4ccc5nc(C(F)F)[nH]c(=O)c5c4)n(C)n3)cc2C(F)(F)F)CC1` [Compound 8, 1-(5-(2-(difluoromethyl)-4-oxo-3,4-dihydroquinazolin-6-yl)-1-methyl-1H-pyrazol-3-yl)-3-(4-((4-methylpiperazin-1-yl)methyl)-3-(trifluoromethyl)phenyl)urea] yielded an EC50 of at most 5 µM. Then `CN1CCN(Cc2ccc(NC(=O)Nc3cc(-c4ccc5ncnc(N)c5c4)n(C)n3)cc2C(F)(F)F)CC1` [Compound 28, 1-(5-(4-aminoquinazolin-6-yl)-1-methyl-1H-pyrazol-3-yl)-3-(4-((4-methylpiperazin-1-yl)methyl)-3-(trifluoromethyl)phenyl)urea], with at most 5 µM; and `O=C(Nc1ccc2oc(-c3cccnc3)nc2c1)[C@H]1C[C@H]1c1ccccc1` [Compound 59, (1S,2R)-2-phenyl-N-(2-(pyridin-3-yl)benzo[d]oxazol-5-yl)cyclopropane-1-carboxamide], with 5 to 50 µM. Then `Cc1c(NC(=O)Nc2ccc(CN3CCN(C)CC3)c(C(F)(F)F)c2)ccc2oc(-c3cnn4ccccc34)nc12` [Compound 18, 1-(4-methyl-2-(pyrazolo[1,5-a]pyridin-3-yl)benzo[d]oxazol-5 yl)-3-(4-((4-methylpiperazin-1-yl)methyl)-3-(trifluoromethyl)phenyl)urea], with above 100 µM; and `Cn1nc(NC(=O)Nc2ccc(CN3CCCCC3)c(C(F)(F)F)c2)cc1-c1ccc2ccncc2c1` [Compound 42, 1-(5-(isoquinolin-7-yl)-1-methyl-1H-pyrazol-3-yl)-3-(4-(piperidin-1-ylmethyl)-3-(trifluoromethyl)phenyl)urea], with above 100 µM. `CCN1CCN(Cc2ccc(NC(=O)Nc3cc(-c4ccc5ccncc5c4)n(C)n3)cc2C(F)(F)F)CC1` [Compound 35, 1-(4-((4-ethylpiperazin-1-yl)methyl)-3-(trifluoromethyl)phenyl)-3-(5-(isoquinolin-7-yl)-1-methyl-1H-pyrazol-3-yl)urea]: the EC50 was at most 5 µM. The value for `CN1CCC(=Cc2ccc(NC(=O)Nc3cc(-c4ccc5cc(N)ncc5c4)n(C)n3)cc2C(F)(F)F)CC1` [Compound 71, 1-(5-(3-aminoisoquinolin-7-yl)-1-methyl-1H-pyrazol-3-yl)-3-(4-((1-methylpiperidin-4-ylidene)methyl)-3-(trifluoromethyl)phenyl)urea] was 5 to 50 µM; that for `O=C(/C=C\c1ccccc1)Nc1ccc2oc(-c3cccnc3)nc2c1` [Compound 60, (Z)-3-phenyl-N-(2-(pyridin-3-yl)benzo[d]oxazol-5-yl)acrylamide] was 5 to 50 µM. Molecule `Cc1cc2oc(-c3cnn4ccccc34)nc2cc1NC(=O)Nc1ccc(CN2CCN(C)CC2)c(C(F)(F)F)c1` [Compound 17, 1-(6-methyl-2-(pyrazolo[1,5-a]pyridin-3-yl)benzo[d]oxazol-5-yl)-3-(4-((4-methylpiperazin-1-yl)methyl)-3-(trifluoromethyl)phenyl)urea] gave an EC50 above 100 µM. In turn, `CN1COc2cc(NC(=O)Nc3cc(-c4ccc5ccncc5c4)n(C)n3)ccc2C1` [Compound 62, 1-(5-(isoquinolin-7-yl)-1-methyl-1H-pyrazol-3-yl)-3-(3-methyl-3,4-dihydro-2H-benzo[e][1,3]oxazin-7-yl)urea] yielded an EC50 above 100 µM. Then `CN1CCN(Cc2ccc(NC(=O)Nc3cc(-c4cccn5ccnc45)n(C)n3)cc2C(F)(F)F)CC1` [Compound 5], with above 100 µM.

With `CN1CCN(Cc2ccc(NC(=O)Nc3cc(-c4ccc5cc(N)ncc5c4)[nH]n3)cc2C(F)(F)F)CC1` [Compound 52, 1-(5-(3-aminoisoquinolin-7-yl)-1H-pyrazol-3-yl)-3-(4-((4-methylpiperazin-1-yl)methyl)-3-(trifluoromethyl)phenyl)urea], the concentration for a half-maximal effect (EC50) is at most 5 µM. The value for `CN1CCN(Cc2ccc(NC(=O)Nc3cc(-c4ccc5cc(N)ncc5c4)n(C)n3)cc2C(F)(F)F)CC1` [Compound 26, 1-(5-(3-aminoisoquinolin-7-yl)-1-methyl-1H-pyrazol-3-yl)-3-(4-((4-methylpiperazin-1-yl)methyl)-3-(trifluoromethyl)phenyl)urea] was at most 5 µM. Then `O=C(Nc1ccc(CN2CCNCC2)c(C(F)(F)F)c1)Nc1ccc2oc(-c3cccnc3)nc2c1` [Compound 13, 1-(4-(piperazin-1-ylmethyl)-3-(trifluoromethyl)phenyl)-3-(2-(pyridin-3-yl)benzo[d]oxazol-5-yl)urea], with above 100 µM; and `COc1ccccc1NC(=O)Nc1cc(-c2ccc3ccncc3c2)n(C)n1` [Compound 65, 1-(5-(isoquinolin-7-yl)-1-methyl-1H-pyrazol-3-yl)-3-(2-methoxyphenyl)urea], with above 100 µM. In turn, `Cn1nc(NC(=O)c2ccccc2)cc1-c1ccc2cc(N)ncc2c1` [Compound 67, N-(5-(3-aminoisoquinolin-7-yl)-1-methyl-1H-pyrazol-3-yl)benzamide] displayed an EC50 above 100 µM.

In the case of `Cc1nc(NC(=O)Nc2ccc(CN3CCN(C)CC3)c(C(F)(F)F)c2)[nH]c1-c1ccc2ccncc2c1` [Compound 46, 1-(5-(isoquinolin-7-yl)-4-methyl-4H-imidazol-2-yl)-3-(4-((4-methylpiperazin-1-yl)methyl)-3-(trifluoromethyl)phenyl)urea], the EC50 is at most 5 µM. The value for `Cn1nc(NC(=O)NCc2ccccc2)cc1-c1ccc2ccncc2c1` [Compound 63, 1-benzyl-3-(5-(isoquinolin-7-yl)-1-methyl-1H-pyrazol-3-yl)urea] was above 100 µM; that for `CN1CCN(Cc2ccc(NC(=O)Nc3nn(C)c4cc(-c5cccnc5)ccc34)cc2C(F)(F)F)CC1` [Compound 1, 1-(1-methyl-6-(pyridin-3-yl)-1H-indazol-3-yl)-3-(4-((4-methylpiperazin-1-yl)methyl)-3-(trifluoromethyl)phenyl)urea] was at most 5 µM; that for `CN1CCN(Cc2ccc(NC(=O)Nc3ccc4oc(-c5cccnc5)nc4c3)cc2C(F)(F)F)CC1` [Compound 15, 1-(4-((4-methylpiperazin-1-yl)methyl)-3-(trifluoromethyl)phenyl)-3-(2-(pyridin-3-yl)benzo[d]oxazol-5-yl)urea] was above 100 µM. The value for `CSc1ccccc1NC(=O)Nc1cc(-c2ccc3ccncc3c2)n(C)n1` [Compound 68, 1-(5-(isoquinolin-7-yl)-1-methyl-1H-pyrazol-3-yl)-3-(2-(methylthio)phenyl)urea] was above 100 µM.

Values taken from US10125123B2, “Small molecule IRE1-α inhibitors” (Cornell University, priority 2016, dated 2018).
